Read-outs that look alike come from different tables or passages of the source.
Legend:
Format in all cases: cell-based
[1] = target: wild-type human cardiac sodium channel, hNav1.5 (Homo sapiens, UniProt Q14524); test: Late INa screening assay (QPatch whole cell patch clamp, HEK293)
Method in brief: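 HEK293 stably expressing hNav1.5 without beta subunits, recorded at 23-25° C. Late current was induced by 10 μM tefluthrin. Cells were depolarized from −120 mV to −20 mV for 250 ms at 0.1 Hz. Compounds were tested at 1 μM in extracellular solution, with baseline taken in 0Na-ECF; output is percent block of late INa.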

[2] = target: T1, hNav 1.2 sodium channel isoform (Homo sapiens, UniProt Q99250); test: hNav1.2 whole-cell voltage-clamp assay; details: use-dependent block, 10 Hz, read-out: NAV1.2* UDB-10HZ
T1 construct: expressed in transfected cells
T1 sequence (Q99250 whole entry, canonical isoform): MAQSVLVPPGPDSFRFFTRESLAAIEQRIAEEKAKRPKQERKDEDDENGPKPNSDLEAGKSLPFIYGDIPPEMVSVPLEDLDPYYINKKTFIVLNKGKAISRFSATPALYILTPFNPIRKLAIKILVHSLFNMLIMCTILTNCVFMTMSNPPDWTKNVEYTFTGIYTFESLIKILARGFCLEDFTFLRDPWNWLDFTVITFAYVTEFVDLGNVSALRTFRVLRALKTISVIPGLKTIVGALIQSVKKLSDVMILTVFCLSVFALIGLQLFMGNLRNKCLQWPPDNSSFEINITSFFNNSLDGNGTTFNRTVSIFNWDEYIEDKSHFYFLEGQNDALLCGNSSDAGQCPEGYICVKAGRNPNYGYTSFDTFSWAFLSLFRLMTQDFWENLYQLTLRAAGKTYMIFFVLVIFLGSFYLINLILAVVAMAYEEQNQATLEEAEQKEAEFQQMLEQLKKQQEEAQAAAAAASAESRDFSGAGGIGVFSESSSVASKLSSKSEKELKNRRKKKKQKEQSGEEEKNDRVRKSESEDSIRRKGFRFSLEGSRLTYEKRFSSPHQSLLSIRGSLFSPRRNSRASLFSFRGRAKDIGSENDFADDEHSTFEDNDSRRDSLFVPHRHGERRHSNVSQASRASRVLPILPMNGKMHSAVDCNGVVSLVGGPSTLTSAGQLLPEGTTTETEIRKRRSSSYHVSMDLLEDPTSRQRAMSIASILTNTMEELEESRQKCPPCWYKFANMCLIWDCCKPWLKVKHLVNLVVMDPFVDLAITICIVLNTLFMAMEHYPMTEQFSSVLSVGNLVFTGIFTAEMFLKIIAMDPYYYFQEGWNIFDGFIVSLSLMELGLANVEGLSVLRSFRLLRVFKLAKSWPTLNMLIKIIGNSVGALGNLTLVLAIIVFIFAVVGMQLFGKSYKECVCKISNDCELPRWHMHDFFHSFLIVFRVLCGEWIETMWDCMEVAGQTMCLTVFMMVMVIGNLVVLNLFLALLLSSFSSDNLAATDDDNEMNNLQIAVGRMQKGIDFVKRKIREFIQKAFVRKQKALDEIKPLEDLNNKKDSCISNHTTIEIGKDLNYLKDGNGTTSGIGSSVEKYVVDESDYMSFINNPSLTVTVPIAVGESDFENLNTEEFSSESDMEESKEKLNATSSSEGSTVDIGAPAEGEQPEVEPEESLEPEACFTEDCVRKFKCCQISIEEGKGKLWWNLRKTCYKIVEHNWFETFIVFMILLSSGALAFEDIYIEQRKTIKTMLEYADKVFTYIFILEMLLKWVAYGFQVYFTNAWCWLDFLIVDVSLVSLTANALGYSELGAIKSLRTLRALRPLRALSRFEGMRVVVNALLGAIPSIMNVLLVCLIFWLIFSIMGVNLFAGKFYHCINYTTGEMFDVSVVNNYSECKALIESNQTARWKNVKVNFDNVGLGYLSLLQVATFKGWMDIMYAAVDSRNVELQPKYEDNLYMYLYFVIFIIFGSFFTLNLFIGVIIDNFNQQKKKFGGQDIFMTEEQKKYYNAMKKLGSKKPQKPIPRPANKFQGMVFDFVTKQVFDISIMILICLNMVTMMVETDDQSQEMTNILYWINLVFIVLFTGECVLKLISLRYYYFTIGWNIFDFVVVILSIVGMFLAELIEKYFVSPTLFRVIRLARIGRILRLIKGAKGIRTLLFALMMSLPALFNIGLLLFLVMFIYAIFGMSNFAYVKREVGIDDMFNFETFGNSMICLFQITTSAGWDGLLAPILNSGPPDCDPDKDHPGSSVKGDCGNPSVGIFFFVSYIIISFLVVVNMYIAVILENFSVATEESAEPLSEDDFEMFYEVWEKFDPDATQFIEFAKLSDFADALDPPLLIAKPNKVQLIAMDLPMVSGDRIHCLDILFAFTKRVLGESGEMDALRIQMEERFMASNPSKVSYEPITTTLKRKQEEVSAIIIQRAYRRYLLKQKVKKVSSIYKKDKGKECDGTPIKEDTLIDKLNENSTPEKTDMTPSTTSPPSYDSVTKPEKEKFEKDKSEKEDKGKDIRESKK
Method: Wild-type (WT) cDNA stably transfected in Chinese hamster ovary (CHO) cells is used to record INa. Unless otherwise noted, all reagents are purchased from Sigma-Aldrich (St Louis, Mo., U.S.A.).
Whole-cell voltage-clamp recordings are used to measure the biophysical properties of WT. […] Cells are allowed to stabilize for 10 min after establishment of the whole-cell configuration before current is measured. Series resistance is compensated 90% to assure that the command potential is reached within microseconds with a voltage error<2 mV. Leak currents are subtracted by using an online P/4 procedure and all currents are low-pass Bessel filtered at 5 kHz and digitized at 50 kHz.
For clarity, representative ramp currents are low pass filtered off-line at 50 Hz. Specific voltage-clamp protocols assessing channel activation, fast inactivation and availability during repetitive stimulation are used. Results are presented as mean±SEM.
Tonic block of peak current is measured using a step to −10 mV (20 ms) from a holding potential of −120 mV (0.2 Hz). Use-dependent block of peak current is measured during pulse number 300 of a pulse train (−10 mV, 5 ms, 300 pulses, 10 Hz or 25 Hz) from a holding potential of −120 mV. Two sequential pulse train stimulations are averaged to obtain mean current traces for each recording condition, which are then used for offline subtraction and analysis.
For use-dependent studies, cells are stimulated with depolarizing pulse trains (−10 mV, 5 ms, 300 pulses, 10 and 25 Hz) from a holding potential of −120 mV. Currents are then normalized to the peak current recorded in response to the first pulse in each frequency train. For tonic block studies, peak current is evaluated in response to a 20 ms depolarization to −10 mV (0.2 Hz). […] Results are presented as mean±SEM.
A stock solution of 10 mM compound of Formula I is prepared in 0.1 M HCl or DMSO. […] The final DMSO concentration was kept at 0.1% in all solutions. Direct application of the perfusion solution to the clamped cell is achieved using the Perfusion Pencil system (Automate, Berkeley, Calif.). Direct cell perfusion is driven by gravity at a flow rate of 350 μL/min using a 250 micron tip. This system sequesters the clamped cell within a perfusion stream and enables complete solution exchange within 1 second. The clamped cell is perfused continuously starting immediately after establishing the whole-cell configuration. Control currents are measured during control solution perfusion.
Solutions are perfused for three minutes prior to current recordings to allow equilibrium (tonic) drug block. Tonic block of peak currents is measured from this steady-state condition. Three sequential current traces are averaged to obtain a mean current for each recording. The mean current traces are utilized for offline analysis. Use-dependent block of peak current is measured during pulse number 300 of the pulse train, (−10 mV, 5 ms, 300 pulses, 10 Hz) from a holding potential of −120 mV.

[3] = target: T2, hNav 1.1 sodium channel isoform (Homo sapiens, UniProt P35498); test: hNav1.1 whole-cell voltage-clamp assay; details: for inhibition at 1 µM: use-dependent block, 10 Hz, read-out: NAV1.1* UDB-10HZ
T2 construct: expressed in transfected cells; host or cells: HEK293, transient transfection (Qiagen Superfect)

[4] = HEK293, % Inhibition at 1 uM, read-out: Late INa*
[5] = HEK293, percent block of late INa, compound at 1 μM, 10 μM Tefluthrin, read-out: Late INa 1 μM

wild-type human cardiac sodium channel, hNav1.5, sequence (Q14524 whole entry): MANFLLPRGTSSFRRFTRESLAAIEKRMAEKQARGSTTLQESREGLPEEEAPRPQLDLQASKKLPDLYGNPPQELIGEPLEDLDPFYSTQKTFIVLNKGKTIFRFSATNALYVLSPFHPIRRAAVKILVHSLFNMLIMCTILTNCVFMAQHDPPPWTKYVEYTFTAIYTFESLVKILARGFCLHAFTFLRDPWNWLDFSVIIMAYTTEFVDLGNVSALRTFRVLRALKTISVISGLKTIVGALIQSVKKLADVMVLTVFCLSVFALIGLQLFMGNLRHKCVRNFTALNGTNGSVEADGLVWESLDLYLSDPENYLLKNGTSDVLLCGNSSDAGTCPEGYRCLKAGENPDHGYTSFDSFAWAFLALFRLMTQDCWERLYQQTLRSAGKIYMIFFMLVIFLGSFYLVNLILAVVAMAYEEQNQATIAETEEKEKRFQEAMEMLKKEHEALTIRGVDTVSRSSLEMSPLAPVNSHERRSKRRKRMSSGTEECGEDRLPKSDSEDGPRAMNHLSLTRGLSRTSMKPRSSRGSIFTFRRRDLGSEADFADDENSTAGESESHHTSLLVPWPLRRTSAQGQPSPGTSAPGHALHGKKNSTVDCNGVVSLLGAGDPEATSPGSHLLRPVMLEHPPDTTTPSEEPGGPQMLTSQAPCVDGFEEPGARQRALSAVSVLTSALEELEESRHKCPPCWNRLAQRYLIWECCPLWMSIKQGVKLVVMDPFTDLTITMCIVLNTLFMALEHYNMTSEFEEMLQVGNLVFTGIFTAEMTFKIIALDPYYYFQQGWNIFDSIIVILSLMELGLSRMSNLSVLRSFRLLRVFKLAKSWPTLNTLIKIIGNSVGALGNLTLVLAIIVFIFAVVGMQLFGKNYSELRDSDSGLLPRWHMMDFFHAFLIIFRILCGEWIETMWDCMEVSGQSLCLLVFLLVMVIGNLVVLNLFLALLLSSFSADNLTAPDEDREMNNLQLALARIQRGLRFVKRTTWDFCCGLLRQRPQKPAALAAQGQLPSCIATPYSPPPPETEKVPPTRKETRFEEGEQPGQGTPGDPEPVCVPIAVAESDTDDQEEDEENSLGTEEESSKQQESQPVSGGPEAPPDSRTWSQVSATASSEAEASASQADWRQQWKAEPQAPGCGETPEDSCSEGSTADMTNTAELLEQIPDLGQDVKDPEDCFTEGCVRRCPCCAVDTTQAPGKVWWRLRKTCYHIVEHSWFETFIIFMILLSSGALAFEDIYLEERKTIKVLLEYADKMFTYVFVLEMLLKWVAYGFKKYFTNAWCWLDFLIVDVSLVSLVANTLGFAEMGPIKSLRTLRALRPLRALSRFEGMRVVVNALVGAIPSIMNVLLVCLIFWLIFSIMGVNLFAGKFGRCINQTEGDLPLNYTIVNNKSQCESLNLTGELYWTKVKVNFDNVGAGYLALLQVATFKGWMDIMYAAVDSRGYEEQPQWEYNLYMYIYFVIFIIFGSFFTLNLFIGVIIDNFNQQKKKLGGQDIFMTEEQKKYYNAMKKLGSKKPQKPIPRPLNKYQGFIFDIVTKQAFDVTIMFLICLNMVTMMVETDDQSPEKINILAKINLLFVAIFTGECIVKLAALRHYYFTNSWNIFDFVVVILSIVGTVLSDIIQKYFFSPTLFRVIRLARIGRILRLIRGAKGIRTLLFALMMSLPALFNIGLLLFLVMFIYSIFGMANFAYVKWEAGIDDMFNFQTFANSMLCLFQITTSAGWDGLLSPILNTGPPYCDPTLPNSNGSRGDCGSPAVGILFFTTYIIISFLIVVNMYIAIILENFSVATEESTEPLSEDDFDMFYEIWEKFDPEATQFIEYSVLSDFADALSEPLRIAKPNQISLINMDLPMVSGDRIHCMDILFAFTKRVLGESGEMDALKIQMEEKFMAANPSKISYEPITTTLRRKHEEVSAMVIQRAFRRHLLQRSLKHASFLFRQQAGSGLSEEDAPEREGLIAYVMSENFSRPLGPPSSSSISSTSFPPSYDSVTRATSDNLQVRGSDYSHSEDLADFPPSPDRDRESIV

| inhibition at 1 µM [2] [%] | inhibition at 1 µM [3] [%] | Structure (SMILES) | inhibition at 1 µM [1, 4] [%] | inhibition at 1 µM [1, 5] [%] | IC50 ([3]; frequency of 10 Hz, read-out: IC50 block of hNav […] peak INa) [µM] | IC50 ([3]; frequency of 25 Hz, read-out: IC50 block of hNav […]) [µM] |
| --- | --- | --- | --- | --- | --- | --- |
| 15 | 3 | O=C1c2cc(-c3ccc(C(F)(F)F)cc3)ccc2OC[C@H]2CN(CC(F)F)CCN12 [II-22, (R)-2-(2,2-difluoroethyl)-8-(4-(trifluoromethyl)phenyl)-3,4,12,12a-tetrahydro-1H-benzo[f]pyrazino[2,1-c][1,4]oxazepin-6(2H)-one] | 30 | 30 | – | – |
| 10 | -2 | O=C1c2cc(-c3ccc(C(F)(F)F)cc3)ccc2OC[C@H]2CN(CC(F)(F)F)CCN12 [II-83, (R)-2-(2,2,2-trifluoroethyl)-8-(4-(trifluoromethyl)phenyl)-3,4,12,12a-tetrahydro-1H-benzo[f]pyrazino[2,1-c][1,4]oxazepin-6(2H)-one] | 31 | 31 | – | – |
| -1 | -10 | O=C1c2cc(-c3ccc(Cl)cc3)ccc2OCCN1Cc1ncccn1 [II-88, 7-(4-chlorophenyl)-4-(pyrimidin-2-ylmethyl)-3,4-dihydrobenzo[f][1,4]oxazepin-5(2H)-one] | 41 | 41 | – | – |
| -8 | -1 | CC(C)(C)c1ccc(-c2ccc3c(c2)C(=O)N(Cc2ncccn2)CCO3)cc1 [II-98, 7-(4-tert-butylphenyl)-4-(pyrimidin-2-ylmethyl)-3,4-dihydrobenzo[f][1,4]oxazepin-5(2H)-one] | 39 | 39 | – | – |
| -2 | -4 | O=C1c2cc(-c3ccc(C(F)(F)F)cc3Cl)ccc2OCCN1Cc1ncccn1 [II-110, 7-(2-chloro-4-(trifluoromethyl)phenyl)-4-(pyrimidin-2-ylmethyl)-3,4-dihydrobenzo[f][1,4]oxazepin-5(2H)-one] | 35 | 35 | – | – |
| -18 | -11 | O=C1c2cc(-c3ccc(Cl)cc3F)ccc2OCCN1Cc1ncccn1 [II-117, 7-(4-chloro-2-fluorophenyl)-4-(pyrimidin-2-ylmethyl)-3,4-dihydrobenzo[f][1,4]oxazepin-5(2H)-one] | 37 | 37 | – | – |
| 7 | 8 | O=C1c2cc(-c3ccc(C(F)(F)F)cc3)ccc2OCCN1Cc1cn2ccccc2n1 [II-129, 4-(imidazo[1,2-a]pyridin-2-ylmethyl)-7-(4-(trifluoromethyl)phenyl)-3,4-dihydrobenzo[f][1,4]oxazepin-5(2H)-one] | 33 | 33 | – | – |
| -3 | -1 | O=C(c1ncccn1)N1CCOc2ccc(-c3ccc(OC(F)(F)F)cc3)cc2C1 [III-1, pyrimidin-2-yl(7-(4-(trifluoromethoxy)phenyl)-2,3-dihydrobenzo[f][1,4]oxazepin-4(5H)-yl)methanone] | 33 | 33 | – | – |
| 20 | 6 | O=C1c2cc(C#Cc3ccc(C(F)(F)F)cc3)ccc2OCCN1Cc1ncccn1 [VIII-6, 4-(pyrimidin-2-ylmethyl)-7-((4-(trifluoromethyl)phenyl)ethynyl)-3,4-dihydrobenzo[f][1,4]oxazepin-5(2H)-one] | 38 | 38 | – | – |

| Structure (SMILES) | inhibition at 1 µM [2] [%] | inhibition at 1 µM [3] [%] | inhibition at 1 µM [1, 4] [%] | inhibition at 1 µM [1, 5] [%] | IC50 ([3]; frequency of 10 Hz, read-out: IC50 block of hNav […] peak INa) [µM] | IC50 ([3]; frequency of 25 Hz, read-out: IC50 block of hNav […]) [µM] |
| --- | --- | --- | --- | --- | --- | --- |
| O=C1CN(Cc2ccccc2)C(=O)c2cc(-c3ccc(C(F)(F)F)cc3)ccc2N1 [Compound X-8, 4-benzyl-7-(4-(trifluoromethyl)phenyl)-3,4-dihydro-1H-benzo[e][1,4]diazepine-2,5-dione] | -14 | -12 | 50 | 50 | – | – |
| O=C1c2cc(-c3ccc(OC(F)(F)F)cc3)ccc2OCCN1Cc1ncccn1 [II-73, 4-(pyrimidin-2-ylmethyl)-7-(4-(trifluoromethoxy)phenyl)-3,4-dihydrobenzo[f][1,4]oxazepin-5(2H)-one] | 19 | – | 42 | 42 | > 100 | 3.4 |
| O=C1c2cc(-c3ccc(C(F)(F)F)cc3F)ccc2OCCN1Cc1ncccn1 [II-105, 7-(2-fluoro-4-(trifluoromethyl)phenyl)-4-(pyrimidin-2-ylmethyl)-3,4-dihydrobenzo[f][1,4]oxazepin-5(2H)-one] | 1 | -17 | 45 | 45 | – | – |
| O=C1c2cc(C#Cc3ccc(OC(F)(F)F)cc3)ccc2OCCN1Cc1ncccn1 [VIII-4, 4-(pyrimidin-2-ylmethyl)-7-((4-(trifluoromethoxy)phenyl)ethynyl)-3,4-dihydrobenzo[f][1,4]oxazepin-5(2H)-one] | 18 | 5 | 61 | 61 | – | – |

— patent publication US9676760B2, “Fused heterocyclic compounds as ion channel modulators” (Gilead Sciences, Inc., priority 2011, dated 2017)
